Like-named read-outs stand apart in the source and are kept apart here.
How the values were obtained:
[1] = test system: EA.hy 926 endothelial cells; test: Analysis of GSH adducts in endothelial cells subjected to oxidative stress (t-BuOOH/FeII); type: cell-based; conditions: 10 μM t-BuOOH/500 μM FeII
Experimental: EA.hy 926 cells were incubated until they reached 70-80% confluence (approximately 2×10^6 cells). DMEM was removed and replaced with FBS-free DMEM prior to treatment with t-BuOOH (10 μM) and Fe^II (500 μM, ferrous sulfate). Cells were collected after 30 min, and intracellular GSH adduct concentrations were quantified by stable isotope dilution LC-MRM/MS as described above. Channels corresponding to the specific MRM transitions of the ONE-GSH adduct IIb and its trideuterated internal standard were monitored as described above. MRM transitions for HNE- and ONO-GSH adducts m/z 464 (MH^+)→m/z 308 (MH^+—C9H16O2) were also monitored. Quantification of diastereomeric HNE-GSH adducts was conducted by determining the ratio of the area of the HNE-GSH adducts signal to the area of [^2H3]-ONE-GSH adduct IIb. Intracellular concentrations of HNE-GSH adducts were determined with reference to a standard curve constructed in lysis buffer using authentic standards of unlabeled HNE-GSH adducts as described above for the ONE-GSH adduct IIb.

[2] = test system: EA.hy 926 endothelial cells; test: Analysis of GSH adducts (TOG) in ONE-treated endothelial cells by stable isotope dilution LC-MRM/MS; type: cell-based; conditions: for detection of the adduct in cells treated with ONE: EA.hy 926 cells
Experimental: EA.hy 926 cells were incubated until they reached 70-80% confluence (approximately 2×10^6 cells). DMEM was removed and replaced with FBS-free DMEM prior to treatment with varying concentrations of ONE dissolved in ethanol. The final concentration of ethanol in the culture medium was <0.1%. […] […] […] The cell lysate flow-through and cell media (40 μL of each) were each analyzed in duplicate by LC-MRM/MS using gradient system 4 on the Finnigan Quantum Ultra AM mass spectrometer. The internal standard [^2H3]-ONE-GSH adduct IIb was prepared from 9-[2H3]-ONE and GSH. Quantification of endogenous ONE-GSH adduct IIb was performed from the peak area ratios for the transition m/z 426 [ONE-GSH adduct IIb, protonated molecule (MH+)]→m/z 280 (MH+—CONHCH2CO2H—CONH2) compared to the transition m/z 429 (MH^+, [^2H3]-ONE-GSH adduct IIb internal standard)→m/z 283 (MH+—CONHCH2CO2H—CONH2). Intracellular and extracellular ONE-GSH adduct IIb concentrations were determined by interpolation from a standard curve prepared by adding a fixed amount of [^2H3]-ONE-GSH adduct IIb (10 ng) to increasing amounts of authentic ONE-GSH adduct IIb in the blank lysis buffer or incubation medium (range 0.2 ng/mL to 50 ng/mL). A typical regression line for a standard curve of area ratios compared with ONE-GSH adduct IIb concentrations [ng/mL] in the blank lysis buffer was y) 0.065x +0.0045 (r^2=0.9999).

[3] = incubated with 1% TFA, 37° C., 24 h
Experimental: A portion of ONE-GSH adduct IIb was then incubated with 1% TFA at 37° C. for 24 h. The reaction mixture (20 μL) was analyzed by LC-MS using gradient system 1.

[4] = test system: glutathione-S-transferase (GST); conditions: GSH 1 mM, ONE 1 mM
Experimental: GSH (1 or 4 mM) was incubated with 4-ONE (1 mM or 100 μM) in 100 mM potassium phosphate buffer (200 μL) containing 1 mM EDTA (pH 6.5). Reactions were also conducted in the presence of equine or rat GST (10 or 100 units). Similar reactions were performed with 4 mM GSH and 2-[2 Hi]-ONE, 3-[2H]-ONE, or 2,3-[^2H2]-ONE (1 mM). Reaction mixtures were incubated at 37° C. for 1 h and then filtered through an Amicon Ultra-4 5,000 filter, and a 20 μL aliquot was analyzed by LC-MS using gradient system 1.
TOG and ONE were monitored by UV (224 nm) from the reaction between GSH (1 mM) and ONE (1 mM) in the presence of GST (10 or 100 units) for 24 h.

## CCCCCc1c(SCC(NC(=O)CCC(N)C(=O)O)C(=O)NCC(=O)O)ccn1C(CCC(=O)NC(CS)C(=O)NCC(=O)O)C(=O)O (stereo not drawn) [adduct Ia, 2-amino-4-[2-(1-{1-carboxy-3-[1-(carboxymethyl-carbamoyl)-2-mercapto-ethylcarbamoyl]-propyl}-2-pentyl-1H-pyrrol-3-ylsulfanyl)-1-(carboxymethyl-carbamoyl)-ethylcarbamoyl]-butyric acid]
[1]
  detection of the adduct in cells subjected to oxidative stress: unable to detect
[2]
  detection of the adduct in cells treated with ONE: unable to detect

## CCCCCc1c2ccn1C(C(=O)O)CCC(=O)NC(C(=O)NCC(=O)O)CSc1ccn(c1CCCCC)C(C(=O)O)CCC(=O)NC(C(=O)NCC(=O)O)CS2 (stereo not drawn) [adduct III, 7,19-bis-(carboxymethyl-carbamoyl)-5,17-dioxo-25,26-dipentyl-9,21-dithia-1,6,13,18-tetraaza-tricyclo[20.2.1.110.13]hexacosa-10(26),11,22(25),23-tetraene-2,14-dicarboxylic acid]
[1]
  detection of the adduct in cells subjected to oxidative stress: unable to detect
[2]
  detection of the adduct in cells treated with ONE: unable to detect

## (2S,7R)-7-[iV-(carboxymethyl)carbamoyl]-5-oxo-12-pentyl-9-thia-1,6-diazabicyclo[8.2.1]trideca-10(13),11-diene-2-carboxylic acid [TOG]
[3]
  conversion to dehydrated product (adduct IV): quantitative conversion
[4]; 10 units of GST
  incubation time to maximal formation of TOG: 24 h
[4]; 100 units of GST
  incubation time to maximal formation of TOG: 4 h
[2]; 20 fiM ONE for 30 min
  TOG as share of the intracellular total GSH at the start of the incubation (10 nmol): 15.4%
  total TOG: 1.54 nmol
[2]; after the addition of 20 μM ONE (printed 20 μL; 20/<M)
  intracellular concentration of TOG: 46.1 µM
[2]; after the addition of ONE
  intracellular TOG, maximum of dose-dependent increase: 46.1 pmol/2×10^6 cells
[2]; cells incubated with 5 fiU ONE for 0.5 h
  concentration of intracellular TOG: 2.8 µM

## CCCCCC(=O)/C=C/C=O [ONE, 4-oxo-2(E)-nonenal]
[4]
  reaction rate with 100 units of GST relative to 10 units: 6 times
[4]; 10 units of GST, after 24 h
  ONE still left in the reaction mixture: 6%
[4]; 10 units of GST, by 4 h
  ONE consumed: 58%
[4]; 100 units of GST, after 4 h
  consumption of ONE: 93%
[4]; 100 units of GST, after 24 h
  ONE remaining: not detectable
[4]; 100 units of GST, by 40 min
  ONE consumed: 52%
[2]; EA.hy 926 endothelial cells
  ONE concentration at which the cells were no longer viable: > 20 /<M
[2]; LC-MRM/MS
  ONE concentration at which TOG was detected in the extracellular milieu: ≥ 1 µM
  ONE concentration at which intracellular TOG could be quantified: ≥ 5 /iM

From patent US8748121B2, “GSH adducts and uses thereof” (The Trustees of the University of Pennsylvania, priority 2006, dated 2014)
